IC50 data for 15 molecules are collected here from patent publication US10479780B2, “Aminopyrazole derivatives” (Chugai Seiyaku Kabushiki Kaisha, priority 2015, dated 2019).

What all share (format): biochemical
One assay has as its target T1, human Src enzyme (Homo sapiens, UniProt P12931).
T1 construct: purchased Carna Biosciences, Inc. 08-173
Description: Src enzyme inhibitory activity (time-resolved fluorometry, biotinylated peptide phosphorylation). The following applies: read-out: SRC_IC50. Put shortly:
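Compounds were tested for blocking tyrosine phosphorylation of a biotinylated peptide substrate by recombinant human Src. Phosphorylated product was quantified by time-resolved fluorometry using europium cryptate and XL665 conjugates, and IC50 was calculated against the compound-free control.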

A further assay concerns the target T2, human Yes1 enzyme (Homo sapiens, UniProt P07947).
T2 construct: made in house
Description: Yes1 enzyme inhibitory activity (time-resolved fluorometry, biotinylated peptide phosphorylation). The following applies: read-out: YES_IC50. In outline:
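Inhibition was expressed against a compound-free control to give IC50, using TR-FRET read-out (Eu-cryptate anti-pTyr antibody, streptavidin-XL665).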

Another assay deals with T3, human Lck enzyme (Homo sapiens, UniProt P06239).
T3 construct: purchased Carna Biosciences, Inc. 08-170
Description: Lck enzyme inhibitory activity (time-resolved fluorometry, biotinylated peptide phosphorylation). The note with it: read-out: LCK_IC50. Put shortly: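 Readout pairs a europium cryptate-labelled anti-phosphotyrosine antibody with XL665-streptavidin, measured by time-resolved fluorescence. IC50 derived from percent inhibition against untreated controls.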

Where [1] appears, read: biotinylated peptide phosphorylation.

pIC50: −log10 of the molar value. Where two headings read alike, the source gives them in different places.

T3 sequence (P06239 whole entry): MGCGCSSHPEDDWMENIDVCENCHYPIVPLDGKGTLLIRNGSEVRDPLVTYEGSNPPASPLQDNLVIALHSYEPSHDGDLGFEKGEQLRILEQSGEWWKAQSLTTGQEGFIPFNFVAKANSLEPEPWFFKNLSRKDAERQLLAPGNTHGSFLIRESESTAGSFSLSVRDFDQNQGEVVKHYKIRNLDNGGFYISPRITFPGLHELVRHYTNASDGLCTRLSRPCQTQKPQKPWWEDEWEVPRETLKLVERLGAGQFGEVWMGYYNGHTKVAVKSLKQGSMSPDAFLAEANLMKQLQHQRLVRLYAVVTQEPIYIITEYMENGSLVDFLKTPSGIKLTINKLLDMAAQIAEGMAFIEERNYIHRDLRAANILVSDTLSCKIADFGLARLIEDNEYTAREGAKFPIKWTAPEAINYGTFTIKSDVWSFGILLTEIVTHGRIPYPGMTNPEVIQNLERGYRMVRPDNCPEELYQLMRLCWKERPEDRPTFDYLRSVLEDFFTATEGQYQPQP
T2 sequence (P07947 whole entry): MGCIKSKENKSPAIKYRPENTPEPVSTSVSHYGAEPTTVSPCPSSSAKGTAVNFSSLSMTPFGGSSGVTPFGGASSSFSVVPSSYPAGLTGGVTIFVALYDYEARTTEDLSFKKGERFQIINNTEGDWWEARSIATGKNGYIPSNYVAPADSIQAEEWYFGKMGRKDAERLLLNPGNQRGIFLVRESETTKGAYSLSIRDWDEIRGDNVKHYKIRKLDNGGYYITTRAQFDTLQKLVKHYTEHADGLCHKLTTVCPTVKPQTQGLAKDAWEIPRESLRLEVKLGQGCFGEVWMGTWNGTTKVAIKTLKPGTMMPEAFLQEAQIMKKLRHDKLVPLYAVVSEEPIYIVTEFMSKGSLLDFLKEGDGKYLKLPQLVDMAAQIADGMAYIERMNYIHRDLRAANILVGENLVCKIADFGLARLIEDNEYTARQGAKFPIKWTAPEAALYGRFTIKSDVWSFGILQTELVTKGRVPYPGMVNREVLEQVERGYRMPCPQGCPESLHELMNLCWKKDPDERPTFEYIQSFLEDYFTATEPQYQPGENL
T1 sequence (P12931 whole entry): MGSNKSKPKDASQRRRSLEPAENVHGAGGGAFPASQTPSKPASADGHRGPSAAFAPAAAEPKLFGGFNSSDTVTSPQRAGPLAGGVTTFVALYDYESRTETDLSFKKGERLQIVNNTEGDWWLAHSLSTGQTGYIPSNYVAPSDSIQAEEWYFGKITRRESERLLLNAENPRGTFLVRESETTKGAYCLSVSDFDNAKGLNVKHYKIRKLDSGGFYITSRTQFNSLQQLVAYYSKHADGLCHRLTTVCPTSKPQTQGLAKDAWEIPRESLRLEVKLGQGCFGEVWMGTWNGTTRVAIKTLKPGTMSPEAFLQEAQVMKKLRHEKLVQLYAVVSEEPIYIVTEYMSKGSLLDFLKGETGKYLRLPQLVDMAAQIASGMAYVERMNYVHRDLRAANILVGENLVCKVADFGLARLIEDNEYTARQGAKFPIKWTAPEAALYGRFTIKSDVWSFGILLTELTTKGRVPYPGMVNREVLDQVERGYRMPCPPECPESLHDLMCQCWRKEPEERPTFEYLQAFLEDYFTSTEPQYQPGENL

Turning to `Cc1cc(Oc2c(F)cccc2F)ncc1-n1ncc(C(=O)c2cc3cc(OC4CCN(C5CS(=O)(=O)C5)CC4)c(-c4ccccc4F)cc3[nH]2)c1N` [Example 5-1-311, [5-amino-1-[6-(2,6-difluorophenoxy)-4-methylpyridin-3-yl]pyrazol-4-yl]-[5-[1-(1,1-dioxothietan-3-yl)piperidin-4-yl]oxy-6-(2-fluorophenyl)-1H-indol-2-yl]methanone], the pIC50 at human Src enzyme was 7.32; at human Yes1 enzyme, 8.44; at human Lck enzyme, 7.82.
The like results for `Cc1cc2cc(C(=O)c3cnn(-c4c(C)cc(Oc5ccccc5F)cc4F)c3N)[nH]c2cc1NS(=O)(=O)CC(=O)N1CCCC1` [Example 5-1-110, N-[2-[5-amino-1-[2-fluoro-4-(2-fluorophenoxy)-6-methylphenyl]pyrazole-4-carbonyl]-5-methyl-1H-indol-6-yl]-2-oxo-2-pyrrolidin-1-ylethanesulfonamide] were, in that order, 7.17, 8.11 and 8.00.
Take `Cc1cc(Oc2ccccc2F)ccc1-n1ncc(C(=O)c2cc3cc(OCC(F)F)c(N4C(=O)NC5(CCN(C6COC6)CC5)C4=O)cc3[nH]2)c1N` [Example 5-1-272, 3-[2-[5-amino-1-[4-(2-fluorophenoxy)-2-methylphenyl]pyrazole-4-carbonyl]-5-(2,2-difluoroethoxy)-1H-indol-6-yl]-8-(oxetan-3-yl)-1,3,8-triazaspiro[4.5]decane-2,4-dione]: the pIC50 is 8.11 at human Src enzyme, 9.19 at human Yes1 enzyme and 8.38 at human Lck enzyme.
In the case of `CCN(c1cc2[nH]c(C(=O)c3cnn(-c4cnc(Oc5c(F)cccc5F)cc4C)c3N)cc2cc1F)S(C)(=O)=O` [Example 4-2-126], the pIC50 was 7.89 on human Src enzyme (setting [1]), 8.89 at human Yes1 enzyme (setting [1]) and 8.70 at human Lck enzyme (setting [1]).
In the same order, the values of `Cc1cc(Oc2cccc(F)c2F)ccc1-n1ncc(C(=O)c2cc3cc(NS(C)(=O)=O)c(F)cc3[nH]2)c1N` [Example 4-2-098, N-[2-[5-amino-1-[4-(2,3-difluorophenoxy)-2-methylphenyl]pyrazole-4-carbonyl]-6-fluoro-1H-indol-5-yl]methanesulfonamide] are 7.82, 9.41 and 8.60.
For the molecule `Cc1cc(Oc2c(F)cccc2F)ncc1-n1ncc(C(=O)c2cc3cc(OC4CCN(C(C)C)CC4)c(Br)cc3[nH]2)c1N` [Example 5-1-134, [5-amino-1-[6-(2,6-difluorophenoxy)-4-methylpyridin-3-yl]pyrazol-4-yl]-[6-bromo-5-(1-propan-2-ylpiperidin-4-yl)oxy-1H-indol-2-yl] methanone], the values for the pIC50 on human Src enzyme, on human Yes1 enzyme and on human Lck enzyme were 8.34, 9.43 and 8.68, respectively.
The like results for `Cc1cc(-n2ncc(C(=O)c3cc4cc(OC5CCN(C6COC6)CC5)c(Br)cc4[nH]3)c2N)ccc1Oc1ccccc1F` [Example 5-1-220, (5-amino-1-(4-(2-fluorophenoxy)-3-methylphenyl)-1H-pyrazol-4-yl)(6-bromo-5-((1-(oxetan-3-yl)piperidin-4-yl)oxy)-1H-indol-2-yl)methanone] were, in that order, 6.74, 8.82 and 7.25.
As to `Cc1cc2cc(C(=O)c3cnn(-c4ccc(Oc5ccccc5F)cc4C)c3N)[nH]c2cc1N1C(=O)NC2(CCCCC2)C1=O` [Example 5-1-409, 3-[2-[5-amino-1-[4-(2-fluorophenoxy)-2-methylphenyl]pyrazole-4-carbonyl]-5-methyl-1H-indol-6-yl]-1,3-diazaspiro[4.5]decane-2,4-dione], the values for the pIC50 at human Src enzyme (setting [1]), at human Yes1 enzyme (setting [1]) and on human Lck enzyme (setting [1]) were 6.80, 8.51 and 7.70, respectively.
In the same order, the values of `Cc1cc(Oc2ccccc2)cc(F)c1-n1ncc(C(=O)c2cc3cc(F)c(NS(C)(=O)=O)cc3[nH]2)c1N` [Example 4-7-013, N-[2-[5-amino-1-(2-fluoro-6-methyl-4-phenoxyphenyl)pyrazole-4-carbonyl]-5-fluoro-1H-indol-6-yl]methanesulfonamide] are 7.24, 8.52 and 7.59.
The like results for `CC(C)N1CCC(c2cc3cc(C(=O)c4cnn(-c5ccc(Oc6cccc(F)c6F)cc5F)c4N)[nH]c3cc2F)CC1` [Example 4-2-007, [5-amino-1-[4-(2,3-difluorophenoxy)-2-fluorophenyl]pyrazol-4-yl]-[6-fluoro-5-(1-propan-2-ylpiperidin-4-yl)-1H-indol-2-yl]methanone] were, in that order, 7.35, 9.04 and 8.44.
On to `Cc1cc(Oc2ccccc2F)ccc1-n1ncc(C(=O)c2cc3cc(C4CCN(C(C)C)CC4)c(F)cc3[nH]2)c1N` [Example 4-2-001, [5-amino-1-[4-(2-fluorophenoxy)-2-methylphenyl]pyrazol-4-yl]-[6-fluoro-5-(1-propan-2-ylpiperidin-4-yl)-1H-indol-2-yl]methanone], for which the pIC50 at human Src enzyme (setting [1]) is 8.39; on human Yes1 enzyme (setting [1]), 9.00; on human Lck enzyme (setting [1]), 8.51.
In the same order, the values of `Cc1cc(Oc2c(F)cccc2F)ncc1-n1ncc(C(=O)c2cc3cc(OCC(F)F)c(C4CCN(S(C)(=O)=O)CC4)cc3[nH]2)c1N` [Example 4-17-023, [5-amino-1-[6-(2,6-difluorophenoxy)-4-methylpyridin-3-yl]pyrazol-4-yl]-[5-(2,2-difluoroethoxy)-6-(1-methylsulfonylpiperidin-4-yl)-1H-indol-2-yl]methanone] are 7.57, 8.17 and 7.68.
Take `Cc1cc2cc(C(=O)c3cnn(-c4ccc(Oc5ccccc5F)cc4C)c3N)[nH]c2cc1N1C(=O)[C@@H]2C[C@H](NC(=O)OCC3c4ccccc4-c4ccccc43)CN2C1=O` [Example 5-1-268, 9H-fluoren-9-ylmethyl N-[(6S,7aS)-2-[2-[5-amino-1-[4-(2-fluorophenoxy)-2-methylphenyl]pyrazole-4-carbonyl]-5-methyl-1H-indol-6-yl]-1,3-dioxo-5,6,7,7a-tetrahydropyrrolo[1,2-c]imidazol-6-yl]carbamate]: the pIC50 is 6.92 at human Src enzyme, 7.92 at human Yes1 enzyme and 7.51 at human Lck enzyme.
In the same order, the values of `Cc1cc(-n2ncc(C(=O)c3cc4cc(OC5CCN(C(C)C)CC5)c(-c5cnn(C)c5)cc4[nH]3)c2N)ccc1Oc1ccccc1F` [Example 5-1-236, (5-amino-1-(4-(2-fluorophenoxy)-3-methylphenyl)-1H-pyrazol-4-yl)(5-((1-isopropylpiperidin-4-yl)oxy)-6-(1-methyl-1H-pyrazol-4-yl)-1H-indol-2-yl)methanone] are 6.85, 8.82 and 7.39.
With `Cc1cc(Oc2ccccc2F)cc(F)c1-n1ncc(C(=O)c2cc3cc(OCC(F)F)c(N4CCCS4(=O)=O)cc3[nH]2)c1N` [Example 4-25-010, [5-amino-1-[2-fluoro-4-(2-fluorophenoxy)-6-methylphenyl]pyrazol-4-yl]-[5-(2,2-difluoroethoxy)-6-(1,1-dioxo-1,2-thiazolidin-2-yl)-1H-indol-2-yl]methanone], the pIC50 at human Src enzyme (setting [1]) is 7.80; at human Yes1 enzyme (setting [1]), 8.77; at human Lck enzyme (setting [1]) it was 8.13.
